Results on ten molecules are retold here after ChEMBL document CHEMBL1131919, “Monocarboxylic-based phosphotyrosyl mimetics in the design of GRB2 SH2 domain inhibitors” (Bioorg Med Chem Lett, 1999).

The structures appear in SMILES notation.

The experiment deals with Growth factor receptor-bound protein 2 (Homo sapiens, UniProt P62993). The experiment can be described thus: Inhibitory concentration against Growth factor receptor bound protein 2 in MDA-MB-453 cells. It counts as cell-based.
Growth factor receptor-bound protein 2, sequence (P62993 whole entry): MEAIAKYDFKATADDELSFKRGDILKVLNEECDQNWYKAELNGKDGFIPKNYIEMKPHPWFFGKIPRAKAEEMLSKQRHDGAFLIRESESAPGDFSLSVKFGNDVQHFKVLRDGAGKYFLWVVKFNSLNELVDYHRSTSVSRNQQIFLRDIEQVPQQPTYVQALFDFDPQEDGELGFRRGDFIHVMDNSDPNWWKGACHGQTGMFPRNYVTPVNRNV

Broadly, the IC50 is the midpoint of a concentration-inhibition curve. A lower IC50 goes with inhibition by little substance. Molecule `NC(Cc1ccc(OCC(=O)O)cc1)C(=O)O` (stereo not given) came in with a half-maximal inhibitory concentration (IC50) of 2.5 µM. That is a single-digit micromolar value.

The molecule `NC(Cc1ccc(CC(=O)O)cc1)C(=O)O` (stereo not given) displayed a half-maximal inhibitory concentration (IC50) of 65 µM.

Consider `NC(Cc1ccc(C(F)(F)C(=O)O)cc1)C(=O)O` (stereo not given), for which inhibition was half-maximal at 28 µM (IC50).

As for `NC(=O)C[C@H](NC(=O)C1(NC(=O)[C@@H](Cc2ccc(C(F)(F)C(=O)O)cc2)NC(=O)C(=O)O)CCCCC1)C(=O)NCCCc1cccc2ccccc12`, the 50% inhibitory concentration (IC50) was determined as 2 µM.

`NC(=O)C[C@H](NC(=O)C1(NC(=O)[C@@H](Cc2ccc(CC(=O)O)cc2)NC(=O)C(=O)O)CCCCC1)C(=O)NCCCc1cccc2ccccc12` showed a 50% inhibitory concentration (IC50) of 0.6 µM.

As to `CC(=O)N[C@H](Cc1ccc(OP(=O)(O)O)cc1)C(=O)NC1(C(=O)N[C@@H](CC(N)=O)C(=O)NCCCc2cccc3ccccc23)CCCCC1`, the half-inhibitory concentration (IC50) came out at 0.007 µM.

For `CC(=O)N[C@H](Cc1ccc(C(F)(F)C(=O)O)cc1)C(=O)NC1(C(=O)N[C@@H](CC(N)=O)C(=O)NCCCc2cccc3ccccc23)CCCCC1`, the half-inhibitory concentration (IC50) came out at 28 µM.

On to `CC(=O)N[C@H](Cc1ccc(OCC(=O)O)cc1)C(=O)NC1(C(=O)N[C@@H](CC(N)=O)C(=O)NCCCc2cccc3ccccc23)CCCCC1`, for which the concentration for half-maximal inhibition (IC50) worked out at 65 µM.

`NC(=O)C[C@H](NC(=O)C1(NC(=O)[C@@H](Cc2ccc(OCC(=O)O)cc2)NC(=O)C(=O)O)CCCCC1)C(=O)NCCCc1cccc2ccccc12`: half-maximal inhibition (IC50) required 15 µM.

For `CC(=O)N[C@H](Cc1ccc(CC(=O)O)cc1)C(=O)NC1(C(=O)N[C@@H](CC(N)=O)C(=O)NCCCc2cccc3ccccc23)CCCCC1`, the IC50 came to 2.5 µM.
